{"source": "patent US8063048B2", "about": "“Acetylenyl-pyrazolo-pyrimidine derivatives” (Hoffmann-La Roche Inc., priority 2005, dated 2011)", "data": [{"molecule": "CN(C)CCNS(=O)(=O)c1ccc(C#Cc2cnn3c(C(F)F)cc(-c4cccc(C(F)(F)F)c4)nc23)s1", "note": "[Example 250, 5-[7-Difluoromethyl-5-(3-trifluoromethyl-phenyl)-pyrazolo[1,5-a]pyrimidin-3-ylethynyl]-thiophene-2-sulfonic acid (2-dimethylamino-ethyl)-amide]", "values": [{"measurement": "melting point", "value": 170, "unit": "°C"}]}, {"molecule": "CC(C)(C)NS(=O)(=O)c1cccc(C#Cc2cnn3c(C(F)(F)F)cc(-c4ccc(C(F)(F)F)cc4)nc23)c1", "note": "[Example 24, N-tert-Butyl-3-[7-trifluoromethyl-5-(4-trifluoromethyl-phenyl)-pyrazolo[1,5-a]pyrimidin-3-ylethynyl]-benzenesulfonamide]", "values": [{"measurement": "melting point", "value": "192 to 200", "unit": "°C"}]}, {"molecule": "CNS(=O)(=O)c1ccc(C#Cc2cnn3c(C(F)(F)F)cc(-c4ccc(C(F)(F)F)cc4)nc23)cc1", "note": "[Example 123, N-Methyl-4-[7-trifluoromethyl-5-(4-trifluoromethyl-phenyl)-pyrazolo[1,5-a]pyrimidin-3-ylethynyl]-benzenesulfonamide]", "values": [{"measurement": "melting point", "value": "231 to 233", "unit": "°C"}]}, {"molecule": "Nc1ncc(C#Cc2cnn3c(C(F)(F)F)cc(-c4ccc(C(F)(F)F)cc4)nc23)cn1", "note": "[Example 205, 5-[7-Trifluoromethyl-5-(4-trifluoromethyl-phenyl)-pyrazolo[1,5-a]pyrimidin-3-ylethynyl]-pyrimidin-2-ylamine]", "values": [{"measurement": "melting point", "value": "255 to 256", "unit": "°C"}]}, {"molecule": "O=S(=O)(NCCO)c1ccc(C#Cc2cnn3c(C(F)(F)F)cc(-c4ccc(C(F)(F)F)cc4)nc23)cc1", "note": "[Example 125, N-(2-Hydroxy-ethyl)-4-[7-trifluoromethyl-5-(4-trifluoromethyl-phenyl)-pyrazolo[1,5-a]pyrimidin-3-ylethynyl]-benzenesulfonamide]", "values": [{"measurement": "melting point", "value": "206 to 208", "unit": "°C"}]}, {"molecule": "N#Cc1cc(-c2ccc(C(F)(F)F)cc2)cn2c(C#Cc3ccc(S(N)(=O)=O)s3)cnc12", "note": "[Example 214, 5-[8-Cyano-6-(4-trifluoromethyl-phenyl)-imidazo[1,2-a]pyridin-3-ylethynyl]-thiophene-2-sulfonic acid amide]", "values": [{"measurement": "melting point", "value": "267 to 269", "unit": "°C"}]}, {"molecule": "Nc1ccc(C#Cc2cnn3c(C(F)(F)F)cc(-c4cccc(C(F)(F)F)c4)nc23)cn1", "note": "[Example 259, 5-[7-Trifluoromethyl-5-(3-trifluoromethyl-phenyl)-pyrazolo[1,5-a]pyrimidin-3-ylethynyl]-pyridin-2-ylamine]", "values": [{"measurement": "melting point", "value": 177, "unit": "°C"}]}, {"molecule": "Oc1cncc(C#Cc2cnn3c(C(F)(F)F)cc(-c4ccc(C(F)(F)F)cc4)nc23)c1", "note": "[Example 58, 5-[7-Trifluoromethyl-5-(4-trifluoromethyl-phenyl)-pyrazolo[1,5-a]pyrimidin-3-ylethynyl]-pyridin-3-ol]", "values": [{"measurement": "melting point", "value": "258 to 260", "unit": "°C"}]}, {"molecule": "Cc1cc(-c2ccc(Cl)cc2)cn2c(C#Cc3ccc(S(N)(=O)=O)s3)cnc12", "note": "[Example 211, 5-[6-(4-Chloro-phenyl)-8-methyl-imidazo[1,2-a]pyridin-3-ylethynyl]-thiophene-2-sulfonic acid amide]", "values": [{"measurement": "melting point", "value": "265 to 266", "unit": "°C"}]}, {"molecule": "CN1CCN(S(=O)(=O)c2ccc(C#Cc3cnn4c(C(F)F)cc(-c5ccc(C(F)(F)F)cc5)nc34)s2)CC1", "note": "[Example 252, 7-Difluoromethyl-3-[5-(4-methyl-piperazine-1-sulfonyl)-thiophen-2-ylethynyl]-5-(4-trifluoromethyl-phenyl)-pyrazolo[1,5-a]pyrimidine]", "values": [{"measurement": "melting point", "value": 226, "unit": "°C"}]}, {"molecule": "Nc1cnc(C#Cc2cnn3c(C(F)F)cc(-c4ccc(C(F)(F)F)cc4)nc23)cn1", "note": "[Example 287, 5-[7-Difluoromethyl-5-(4-trifluoromethyl-phenyl)-pyrazolo[1,5-a]pyrimidin-3-ylethynyl]-pyrazin-2-ylamine]", "values": [{"measurement": "melting point", "value": 233, "unit": "°C"}]}, {"molecule": "O=S(=O)(c1ccc(C#Cc2cnn3c(C(F)(F)F)cc(-c4ccc(C(F)(F)F)cc4)nc23)cc1)N1CCOCC1", "note": "[Example 122, 3-[4-(Morpholine-4-sulfonyl)-phenylethynyl]-7-trifluoromethyl-5-(4-trifluoromethyl-phenyl)-pyrazolo[1,5-a]pyrimidine]", "values": [{"measurement": "melting point", "value": "229 to 231", "unit": "°C"}]}]}
